# According to US20240173311A1, “METHODS AND COMPOSITIONS FOR MODULATING FGF ACTIVITY” (Recovery Therapeutics, Inc., priority 2021, published 2024):
# What was measured:
# [1] = molecular target: FGFR1 (Homo sapiens, UniProt P11362); assay: Phosphorylation of FGFR1 in a cell-based system; details: cells expressing FGFR1, increasing concentrations, submaximal concentration of FGF-2, FIG. 2
# Protocol: FIG. 2 is a graph showing the phosphorylation of FGFR1 in the presence of increasing concentrations of Compound 1o in a cell-based system.
# Cells expressing FGFR1 were exposed to increasing concentrations of Compound 10 in the presence of a submaximal concentration of FGF-2. Cells were then lysed, and the relative phosphorylation of FGFR1 was assessed using antibodies to non-phosphorylated and phosphorylated FGFR1. The results are shown in FIG. 2, which is a graph showing the phosphorylation of FGFR1 in the presence of increasing concentrations of Compound 10.
# [2] = system: human coronavirus 229E; assay: Anti-coronavirus activity, cell survival (XTT) of infected HAP1 cells; format: cell-based; details: in combination with FGF-2 (1 ng/ml), compound 0.002-1 μM, 4 days incubation, FIG. 7
# Protocol: FIG. 7 is a graph showing the cell survival of HAP1 cells infected with human coronavirus 229E following a 4-day incubation period in the presence of Compound 1o. Compound 1o (0.002 μM, 0.008 μM, 0.04 μM, 0.2 μM, or 1 uM) and FGF-2 (1 ng/mL) were added on Day -1, Day 0, Day 1, and Day 2 of infection by human coronavirus 229E.
# (§1) Compound 10 was evaluated for its ability to reduce human coronavirus 229E induced cellular toxicity in HAP1 cells with and without the addition of a low concentration of FGF-2. HAP1 cells were seeded at a density of 1×10^4 cells/well in a volume of 100 μL in DMEM supplemented with 10% FBS. Following a 24-hour incubation at 37° C./5% CO2 the cells were pre-incubated with and without (media only) exogenous FGF-2 (1 ng/ml) and Compound 10 (0.002 μM, 0.008 μM, 0.04 μM, 0.2 μM, or 1 μM; plated in triplicate) for 24 hours prior (D-1) to the addition of human coronavirus 229E at a pre-determined titer. On the day of viral infection (D0), and one and two days thereafter (D1 and D2), freshly prepared FGF-2 and Compound 10 were added. The cultures were incubated for 4 days at 37° C./5% CO2, after which the cells were stained for cell survival with the tetrazolium dye XTT.
# [3] = system: HAP1 cells; assay: Cell survival (XTT) of HAP1 cells in the absence of virus; format: cell-based; details: compound 0.002-1 μM, FGF-2 1 ng/ml
# Protocol: as §1
# [4] = molecular target: T1, purified FGF-2/FGFR1 complex (Homo sapiens, UniProt P09038+P11362); assay: Thermal stability assay (TSA) melting curve of the complex (FIG. 1); format: binding; details: 25 μM compound, versus complex alone
# T1 construct: made in house; host or cells: Escherichia coli BL21 (DE3) Star
# Protocol: FIG. 1 is a graph showing the thermal stability assay (TSA) data of purified FGF-2.FGFR1 complex with and without the addition of Compound 1o (dotted line: without Compound 1o; solid line: 25 μM Compound 1o).
# TSA was utilized to biophysically characterize the recombinant human FGFR1/FGF2 complex in the presence or absence of selected compounds of formula (I), Compounds 1, 2a-2f, 20, 5, 60, and 8-13. Compound 1 was prepared according to the procedures described in Example 1, and the other compounds were obtained from commercial sources. The assay functions by protein denaturation over a temperature gradient. […] Changes in the melting temperature of the protein complex in the presence of each compound were monitored and compounds were screened/ranked using this method.
# Complex formation was verified by loading the complexed material on a size exclusion column (superdex 10 300GL S200) and observing the monodisperse peak corresponding to the FGF2/FGFR1 complex (˜ 40 kDa). […] The samples were processed using a Bio-Rad CFX C96 Touch quantitative polymerase chain reaction and run using the FRET assay settings with a heating ramp of 0.3° C./s cycling from 4 to 100° C. Data analysis was performed using the Bio-Rad CFX Manager Software (version 3.1, Bio-Rad) and changes in the melting temperature (Tm) of the complex in the presence of each compound were monitored. […]
# [5] = system: rodent model of stroke recovery (MCAO); assay: Stroke recovery in vivo after middle cerebral artery occlusion (MCAO); details: rat MCAO, 10 mg/kg i.v. on Day 1, 2, 3 after MCAO
# Protocol: Compound 10 was tested for its effectiveness in a rodent model of stroke recovery. Twenty male Sprague Dawley Rats (Charles River Laboratories) each weighing 300-400 g were used in this experiment. First, anesthesia was induced in an induction chamber with 2-3% isoflurane in N2O:O2 (2:1) and maintained with 1-1.5% isoflurane via face mask. Adequate depth of anesthesia was assessed by lack of withdrawal to hindlimb pinch and loss of eyeblink reflex. Once anesthetized, animals received cefazolin sodium (40 mg/kg, i.p.) and buprenorphine SR (0.9-1 mg/kg, s.c.). Cefazolin was used as a prophylactic antibiotic. A veterinary ophthalmic ointment (Sodium Chloride hypertonicity ophthalmic ointment (Muro 128 Sterile Ophthalmic 5% Ointment)) was applied to the eyes. […]
# Behavioral evaluations of sensorimotor function were done by investigators blinded to treatment assignment. […] For the forelimb-placing test, the examiner held the rat close to a tabletop and scored the rat's ability to place the forelimb on the tabletop in response to whisker, visual, tactile, or proprioceptive stimulation. Similarly, for the hindlimb placing test, the examiner assessed the rat's ability to place the hindlimb on the tabletop in response to tactile and proprioceptive stimulation. […]
# T1 sequence (P11362 142-365 limits assumed): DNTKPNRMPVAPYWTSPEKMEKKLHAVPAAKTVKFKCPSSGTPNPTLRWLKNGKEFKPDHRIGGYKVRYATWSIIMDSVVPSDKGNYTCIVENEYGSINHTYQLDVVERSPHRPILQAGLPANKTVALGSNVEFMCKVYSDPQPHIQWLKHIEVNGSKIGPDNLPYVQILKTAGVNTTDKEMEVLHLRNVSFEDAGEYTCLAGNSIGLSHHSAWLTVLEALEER
# T1 sequence (P09038 156-288 limits assumed): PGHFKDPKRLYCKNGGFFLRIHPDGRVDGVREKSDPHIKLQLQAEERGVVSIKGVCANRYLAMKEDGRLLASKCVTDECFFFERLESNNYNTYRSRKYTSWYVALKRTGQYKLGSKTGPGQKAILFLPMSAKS
# Sequence of FGFR1 (P11362 22-822, species assumed): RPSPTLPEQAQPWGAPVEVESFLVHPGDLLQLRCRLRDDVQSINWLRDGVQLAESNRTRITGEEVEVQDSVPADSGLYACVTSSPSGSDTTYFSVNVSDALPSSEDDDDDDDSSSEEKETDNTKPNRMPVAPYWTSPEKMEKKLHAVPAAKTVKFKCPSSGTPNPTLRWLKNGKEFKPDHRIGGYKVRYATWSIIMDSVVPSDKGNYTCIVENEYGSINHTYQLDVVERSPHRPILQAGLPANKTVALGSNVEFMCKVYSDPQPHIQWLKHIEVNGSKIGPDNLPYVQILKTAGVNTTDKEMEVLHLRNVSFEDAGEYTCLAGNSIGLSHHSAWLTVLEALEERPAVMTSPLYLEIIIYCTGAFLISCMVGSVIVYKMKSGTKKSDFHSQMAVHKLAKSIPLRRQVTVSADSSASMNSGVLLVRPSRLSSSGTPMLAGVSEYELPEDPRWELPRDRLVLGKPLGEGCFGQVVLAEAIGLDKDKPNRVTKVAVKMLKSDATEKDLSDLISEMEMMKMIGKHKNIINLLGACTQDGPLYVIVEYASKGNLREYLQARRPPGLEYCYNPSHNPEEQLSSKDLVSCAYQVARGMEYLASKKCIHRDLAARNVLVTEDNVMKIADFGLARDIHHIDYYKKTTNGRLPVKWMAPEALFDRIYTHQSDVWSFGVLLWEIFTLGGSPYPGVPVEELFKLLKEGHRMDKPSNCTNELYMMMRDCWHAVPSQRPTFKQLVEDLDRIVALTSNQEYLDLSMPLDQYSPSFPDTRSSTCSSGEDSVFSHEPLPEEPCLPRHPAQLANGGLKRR
# Sequence of FGFR1 (P09038 143-288 partner, species assumed): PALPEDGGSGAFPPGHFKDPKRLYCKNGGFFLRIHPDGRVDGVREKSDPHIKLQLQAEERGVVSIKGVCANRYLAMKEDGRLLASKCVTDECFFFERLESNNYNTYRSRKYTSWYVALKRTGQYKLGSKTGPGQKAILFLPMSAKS
structure (smiles),measurement,setting,value
"CCN(CC)c1ccc(C=O)cc1 [Compound 10, 4-diethylaminobenzaldehyde]",relative phosphorylation of FGFR1,[1],augmented the effects of FGF-2
same,cell survival of HAP1 cells infected with human coronavirus 229E,[2],increases cell survival
same,cell survival in the absence of the virus,[3],no effect on cell survival
same,shift of the TSA melting curve / stability of the complex,[4],increased stability of the complex
same,rise in body weight following surgery,[5],not affected
same,"sensorimotor recovery (forelimb placing, hindlimb placing, body swing tests)","[5]; up to Day 21, versus vehicle, p<0.001 two-way repeated-measures ANOVA",clear and significant augmentation of sensorimotor recovery
